The experiment concerns the target Sphingosine 1-phosphate receptor 2 (Homo sapiens, UniProt O95136). Put plainly: Binding affinity to S1PR2 (unknown origin) assessed as dissociation constant measured for 60 secs by surface plasmon resonance assay.

Sphingosine 1-phosphate receptor 2, sequence (O95136 whole entry): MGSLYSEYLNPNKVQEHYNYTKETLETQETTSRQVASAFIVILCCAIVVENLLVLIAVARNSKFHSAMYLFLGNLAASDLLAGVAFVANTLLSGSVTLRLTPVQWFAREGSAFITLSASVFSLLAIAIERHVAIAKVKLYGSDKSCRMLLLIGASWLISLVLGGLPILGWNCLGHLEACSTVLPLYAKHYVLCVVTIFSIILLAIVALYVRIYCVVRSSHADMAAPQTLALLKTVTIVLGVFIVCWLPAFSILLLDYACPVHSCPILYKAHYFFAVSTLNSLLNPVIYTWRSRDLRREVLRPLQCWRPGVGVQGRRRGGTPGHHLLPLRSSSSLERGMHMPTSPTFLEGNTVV

Take `Cc1nn(C)c2nc(NNC(=O)Nc3cc(Cl)nc(Cl)c3)cc(C(C)C)c12`: the dissociation rate constant (koff) is 0.161 s⁻¹.
As for `CN(C)c1nc(NNC(=O)Nc2cc(Cl)nc(Cl)c2)nc2c1ccn2C`, the koff was 0.102 s⁻¹.
`O=C(NNc1nc(N2CCOCC2)c2ccn(C3CC3)c2n1)Nc1cc(Cl)nc(Cl)c1`: the dissociation rate constant (koff) is 0.133 s⁻¹.
Turning to `Cn1ccc2c(-c3ccccc3)nc(NNC(=O)Nc3cc(Cl)nc(Cl)c3)nc21`, the koff turned out to be 0.136 s⁻¹.
In the case of `O=C(Nc1cc(Cl)nc(Cl)c1)Nc1cc2ccccn2n1`, the koff is 0.116 s⁻¹.
Take `O=C(Nc1cc(Cl)nc(Cl)c1)Nc1cc2ccc(-c3ccccc3)cn2n1`: the koff is 0.201 s⁻¹.
Turning to `COc1ccc(-c2ccc3cc(NC(=O)Nc4cc(Cl)nc(Cl)c4)nn3c2)cc1`, the koff came to 0.112 s⁻¹.
As to `O=C(NNc1nc(Nc2ccccc2)nc(N2CCCC2)n1)Nc1cc(Cl)nc(Cl)c1`, the koff came to 0.133 s⁻¹.
`CNc1cc(C)nc(NNC(=O)Nc2cc(Cl)nc(Cl)c2)n1`: the koff stood at 0.236 s⁻¹.
As to `Cc1cc(NC(=O)Nc2cc(Cl)nc(Cl)c2)cc(C)n1`, the koff is 0.146 s⁻¹.
For `O=C(Nc1cc(Cl)cc(Cl)c1)Nc1cc(Cl)nc(Cl)c1`, the koff turned out to be 0.116 s⁻¹.
With `CN1CCN(C(=O)Nc2cc(Cl)nc(Cl)c2)CC1`, the koff was 0.106 s⁻¹.
On to `Cc1cc(NC(=O)Nc2cc(Cl)nc(Cl)c2)n(C)n1`, for which the koff stood at 0.177 s⁻¹.
As to `O=C(Nc1ccnc(Cl)c1)Nc1cc(Cl)nc(Cl)c1`, the koff is 0.201 s⁻¹.
The same measure for `COc1c(Cl)cc(NC(=O)Nc2cc(Cl)nc(Cl)c2)cc1Cl`: 0.312 s⁻¹.
Regarding `O=C(Nc1cc(Cl)nc(Cl)c1)Nc1cc(Cl)nc(Cl)c1`, the koff was found to be 0.697 s⁻¹.
The same measure for `COc1cc(NC(=O)Nc2cc(Cl)nc(Cl)c2)cc(Cl)n1`: 0.219 s⁻¹; for `CCOc1cc(NC(=O)Nc2cc(Cl)nc(Cl)c2)cc(Cl)n1`: 0.102 s⁻¹; for `CC(C)Oc1cc(NC(=O)Nc2cc(Cl)nc(Cl)c2)cc(Cl)n1`: 0.119 s⁻¹.
In the case of `O=C(Nc1cc(Cl)nc(Cl)c1)Nc1cc(Cl)nc(OC2CCCC2)c1`, the koff came to 0.179 s⁻¹.
